{
  "source": "patent US5294611A",
  "about": "“Angiotensin II receptor blocking 2,3,6 substituted quinazolinones” (American Cyanamid Company, priority 1993, dated 1994)",
  "test_system": "Angiotensin II (AII) vasopressor response",
  "experiment": "AII Challenge: antagonism of angiotensin II vasopressor response in conscious spontaneously hypertensive rats",
  "format": "in vivo, rat (male okamoto-Aoki SHR)",
  "settings": "for inhibition in vivo at 10 mg/kg / inhibition in vivo at 5 mg/kg: Rattus norvegicus; for inhibition in vivo at 10 mg/kg: iv; for inhibition in vivo at 10 mg/kg / inhibition in vivo at 5 mg/kg / Average Change: SHR n=2; for inhibition in vivo at 5 mg/kg: po, read-out: Inhibition; for Change: single SHR",
  "excerpt": "Conscious Male okamoto-Aoki SHR, 16-20 weeks old, weighing approximately 330 g are purchased from Charles River Labs (Wilmington, Mass.). Conscious rats are restrained in a supine position with elastic tape. The area at the base of the tail is locally anesthetized by subcutaneous infiltration with 2% procaine. […] The cannula is secured, heparinized (1,000 I.U./ml), sealed and the wound is closed. The animals are placed in plastic restraining cages in an upright position. The cannula is attached to a Statham P23Db pressure transducer, and pulsatile blood pressure is recorded to 10-15 minutes with a Gould Brush recorder. […] Angiotensin II (human sequence, Sigma Chem. Co., St. Louis, Mo.) of 0.05 and 0.1 ug/kg i.v. is injected into all rats (predosing response). Then a test compound, vehicle or a known angiotensin II antagonist is administered i.v., i.p. or orally to each set of rats. […] The vasopressor response of angiotensin II is measured for the increase in systolic blood pressure in mmHg.",
  "key": {"[1]": {"settings": "5 mg/kg P.O., AII 0.05 mcg/kg IV, 90 min post dose"}, "[2]": {"settings": "10 mg/kg I.V., AII 0.05 mcg/kg IV, 30 min post dose"}, "[3]": {"settings": "10 mg/kg I.V., AII 0.05 mcg/kg IV, 90 min post dose"}, "[4]": {"settings": "10 mg/kg I.V., AII 0.1 mcg/kg IV, 180 min post dose"}, "[5]": {"settings": "10 mg/kg I.V., AII dose not given, 120 min post dose"}},
  "note": "Where two headings read alike, the source gives them in different places.",
  "data": [
    {"smiles": "CCCCc1nc2ccc([C@@H]3[C@H]4C(=O)CCC[C@H]4ON3C)cc2c(=O)n1Cc1ccc(-c2ccccc2-c2nnn[nH]2)cc1", "note": "(relative stereo) [Example 49]", "values": [
      {"measurement": "inhibition in vivo at 10 mg/kg", "setting": "0.5 h, 10 mg/kg I.V., AII 0.05 mcg/kg IV, 30 min post dose", "result": 100, "unit": "%"},
      {"measurement": "inhibition in vivo at 10 mg/kg", "setting": "0.5 h, 10 mg/kg I.V., AII 0.1 mcg/kg IV, 30 min post dose", "result": 88, "unit": "%"},
      {"measurement": "inhibition in vivo at 10 mg/kg", "setting": "1 h, 10 mg/kg I.V., AII 0.01 mcg/kg IV (so in the source), 60 min post dose", "result": 86, "unit": "%"},
      {"measurement": "inhibition in vivo at 10 mg/kg", "setting": "1 h, 10 mg/kg I.V., AII 0.05 mcg/kg IV, 60 min post dose", "result": 97, "unit": "%"},
      {"measurement": "inhibition in vivo at 10 mg/kg", "setting": "2 h, 10 mg/kg I.V., AII 0.05 mcg/kg IV, 120 min post dose", "result": 86, "unit": "%"},
      {"measurement": "inhibition in vivo at 10 mg/kg", "setting": "2 h, 10 mg/kg I.V., AII dose not given, 120 min post dose", "result": 81, "unit": "%"},
      {"measurement": "inhibition in vivo at 10 mg/kg", "setting": "3 h, 10 mg/kg I.V., AII 0.05 mcg/kg IV, 180 min post dose", "result": 67, "unit": "%"},
      {"measurement": "inhibition in vivo at 10 mg/kg", "setting": "3 h, 10 mg/kg I.V., AII 0.1 mcg/kg IV, 180 min post dose", "result": 63, "unit": "%"},
      {"measurement": "inhibition in vivo at 10 mg/kg", "setting": "[…], 10 mg/kg I.V., AII 0.05 mcg/kg IV, 90 min post dose", "result": 87, "unit": "%"},
      {"measurement": "inhibition in vivo at 10 mg/kg", "setting": "[…], 10 mg/kg I.V., AII 0.1 mcg/kg IV, 90 min post dose", "result": 86, "unit": "%"},
      {"measurement": "inhibition in vivo at 5 mg/kg", "setting": "0.5 h, 5 mg/kg P.O., AII 0.05 mcg/kg IV, 30 min post dose", "result": 37, "unit": "%"},
      {"measurement": "inhibition in vivo at 5 mg/kg", "setting": "0.5 h, 5 mg/kg P.O., AII 0.1 mcg/kg IV, 30 min post dose", "result": 38, "unit": "%"},
      {"measurement": "inhibition in vivo at 5 mg/kg", "setting": "1 h, 5 mg/kg P.O., AII 0.05 mcg/kg IV, 60 min post dose", "result": 59, "unit": "%"},
      {"measurement": "inhibition in vivo at 5 mg/kg", "setting": "1 h, 5 mg/kg P.O., AII 0.1 mcg/kg IV, 60 min post dose", "result": 29, "unit": "%"},
      {"measurement": "inhibition in vivo at 5 mg/kg", "setting": "2 h, 5 mg/kg P.O., AII 0.05 mcg/kg IV, 120 min post dose", "result": 41, "unit": "%"},
      {"measurement": "inhibition in vivo at 5 mg/kg", "setting": "2 h, 5 mg/kg P.O., AII 0.1 mcg/kg IV, 120 min post dose", "result": 55, "unit": "%"},
      {"measurement": "inhibition in vivo at 5 mg/kg", "setting": "3 h, 5 mg/kg P.O., AII 0.05 mcg/kg IV, 180 min post dose", "result": 63, "unit": "%"},
      {"measurement": "inhibition in vivo at 5 mg/kg", "setting": "3 h, 5 mg/kg P.O., AII 0.1 mcg/kg IV, 180 min post dose", "result": 35, "unit": "%"},
      {"measurement": "inhibition in vivo at 5 mg/kg", "setting": "4 h, 5 mg/kg P.O., AII 0.05 mcg/kg IV, 240 min post dose", "result": 34, "unit": "%"},
      {"measurement": "inhibition in vivo at 5 mg/kg", "setting": "4 h, 5 mg/kg P.O., AII 0.1 mcg/kg IV, 240 min post dose", "result": 36, "unit": "%"},
      {"measurement": "inhibition in vivo at 5 mg/kg", "setting": "[…], 5 mg/kg P.O., AII 0.05 mcg/kg IV, 90 min post dose", "result": 56, "unit": "%"},
      {"measurement": "inhibition in vivo at 5 mg/kg", "setting": "[…], 5 mg/kg P.O., AII 0.1 mcg/kg IV, 90 min post dose", "result": 59, "unit": "%"},
      {"measurement": "Average Change", "setting": "5 mg/kg P.O., AII 0.05 mcg/kg IV, 30 min post dose", "result": 21.5, "unit": "mmHg"},
      {"measurement": "Average Change", "setting": "5 mg/kg P.O., AII 0.05 mcg/kg IV, 60 min post dose", "result": 14, "unit": "mmHg"},
      {"measurement": "Average Change", "setting": "[1]", "result": 15, "unit": "mmHg"},
      {"measurement": "Average Change", "setting": "5 mg/kg P.O., AII 0.05 mcg/kg IV, 120 min post dose", "result": 20, "unit": "mmHg"},
      {"measurement": "Average Change", "setting": "5 mg/kg P.O., AII 0.05 mcg/kg IV, 180 min post dose", "result": 12.5, "unit": "mmHg"},
      {"measurement": "Average Change", "setting": "5 mg/kg P.O., AII 0.05 mcg/kg IV, 240 min post dose", "result": 22.5, "unit": "mmHg"},
      {"measurement": "Average Change", "setting": "5 mg/kg P.O., AII 0.1 mcg/kg IV, 30 min post dose", "result": 26.5, "unit": "mmHg"},
      {"measurement": "Average Change", "setting": "5 mg/kg P.O., AII 0.1 mcg/kg IV, 60 min post dose", "result": 30, "unit": "mmHg"},
      {"measurement": "Average Change", "setting": "5 mg/kg P.O., AII 0.1 mcg/kg IV, 90 min post dose", "result": 17.5, "unit": "mmHg"},
      {"measurement": "Average Change", "setting": "5 mg/kg P.O., AII 0.1 mcg/kg IV, 120 min post dose", "result": 19, "unit": "mmHg"},
      {"measurement": "Average Change", "setting": "5 mg/kg P.O., AII 0.1 mcg/kg IV, 180 min post dose", "result": 27.5, "unit": "mmHg"},
      {"measurement": "Average Change", "setting": "5 mg/kg P.O., AII 0.1 mcg/kg IV, 240 min post dose", "result": 27, "unit": "mmHg"},
      {"measurement": "Average Change", "setting": "10 mg/kg I.V., AII 0.01 mcg/kg IV (so in the source), 60 min post dose", "result": 7.5, "unit": "mmHg"},
      {"measurement": "Average Change", "setting": "[2]", "result": 0, "unit": "mmHg"},
      {"measurement": "Average Change", "setting": "10 mg/kg I.V., AII 0.05 mcg/kg IV, 60 min post dose", "result": 1, "unit": "mmHg"},
      {"measurement": "Average Change", "setting": "[3]", "result": 5, "unit": "mmHg"},
      {"measurement": "Average Change", "setting": "10 mg/kg I.V., AII 0.05 mcg/kg IV, 120 min post dose", "result": 5.5, "unit": "mmHg"},
      {"measurement": "Average Change", "setting": "10 mg/kg I.V., AII 0.05 mcg/kg IV, 180 min post dose", "result": 12.5, "unit": "mmHg"},
      {"measurement": "Average Change", "setting": "10 mg/kg I.V., AII 0.1 mcg/kg IV, 30 min post dose", "result": 6.5, "unit": "mmHg"},
      {"measurement": "Average Change", "setting": "10 mg/kg I.V., AII 0.1 mcg/kg IV, 90 min post dose", "result": 7.5, "unit": "mmHg"},
      {"measurement": "Average Change", "setting": "[4]", "result": 20, "unit": "mmHg"},
      {"measurement": "Average Change", "setting": "[5]", "result": 10, "unit": "mmHg"},
      {"measurement": "Change", "setting": "[1]", "result": 15, "unit": "mmHg"},
      {"measurement": "Change", "setting": "[2]", "result": 0, "unit": "mmHg"},
      {"measurement": "Change", "setting": "[3]", "result": 5, "unit": "mmHg"},
      {"measurement": "Change", "setting": "[4]", "result": 20, "unit": "mmHg"},
      {"measurement": "Change", "setting": "[5]", "result": 10, "unit": "mmHg"}
    ]}
  ]
}
